US8580769B2, “Treatment of obesity, metabolic syndrome, and diabetes with protein kinase C inhibitors” (The United States of America as represented by the …, priority 2011, dated 2013)

Legend:
Akt2 = target: T1, Akt2 (Homo sapiens, UniProt P31751); assay: Akt2 activity in human hepatocytes; type: cell-based
T1 construct: host or cells: primary human hepatocytes
Description: After thawing, the hepatocytes were distributed (approximately 10^6 cells per 100 mm plate) and incubated approximately 16 hours overnight in Dulbecco's minimal essential medium containing 5% fetal calf serum, 100 units/ml sodium-penicillin, 100 μg/ml streptomycin-sulfate, 1 μM insulin and 2 μM dexamethasone. After washing, cells were incubated first for 2 hours in William's E medium (Sigma-Aldrich, St. Louis, Mo., catalog no. W1878) containing GLUTAMAX™ (Gibco/Invitrogen, Carlsbad, Calif.), 100 units/ml sodium-penicillin, 100 μg/ml streptomycin-sulfate, 10 μM insulin, 100 nM dexamethasone, and then for 2 hours in William's E medium containing 100 units/ml sodium penicillin, 100 μg/ml streptomycin-sulfate, 100 nM dexamethasone, 0.25 mg/ml transferrin, 0.25 μg/ml sodium selenite and 10 μM insulin. Cells were then washed and incubated for 3 hours in the same medium, but lacking insulin. […]
Akt2 Assay: Akt2 enzyme activity was measured with a kit obtained from Upstate Cell Signaling, as described (Standaert et al., J. Biol. Chem. 279:24929-24934, 2004; Sajan et al., J. Lipid Res. 50:1133-1145, 2009; Sajan et al., Diabetologia 52:1197-1207, 2009; Farese et al., J. Clin. Invest. 117:2289-2301, 2007). […] Akt1/2 activation was also assessed by immunoblotting for phosphorylation of serine-473.

recombinant PKC-ι = target: T2, recombinant PKC-ι (Homo sapiens, UniProt P41743); assay: recombinant PKC-ι activity assay (PIP3-activated); type: biochemical
T2 construct: purchased Biovision, Mountain View, Calif
T2 sequence (P41743 1-596): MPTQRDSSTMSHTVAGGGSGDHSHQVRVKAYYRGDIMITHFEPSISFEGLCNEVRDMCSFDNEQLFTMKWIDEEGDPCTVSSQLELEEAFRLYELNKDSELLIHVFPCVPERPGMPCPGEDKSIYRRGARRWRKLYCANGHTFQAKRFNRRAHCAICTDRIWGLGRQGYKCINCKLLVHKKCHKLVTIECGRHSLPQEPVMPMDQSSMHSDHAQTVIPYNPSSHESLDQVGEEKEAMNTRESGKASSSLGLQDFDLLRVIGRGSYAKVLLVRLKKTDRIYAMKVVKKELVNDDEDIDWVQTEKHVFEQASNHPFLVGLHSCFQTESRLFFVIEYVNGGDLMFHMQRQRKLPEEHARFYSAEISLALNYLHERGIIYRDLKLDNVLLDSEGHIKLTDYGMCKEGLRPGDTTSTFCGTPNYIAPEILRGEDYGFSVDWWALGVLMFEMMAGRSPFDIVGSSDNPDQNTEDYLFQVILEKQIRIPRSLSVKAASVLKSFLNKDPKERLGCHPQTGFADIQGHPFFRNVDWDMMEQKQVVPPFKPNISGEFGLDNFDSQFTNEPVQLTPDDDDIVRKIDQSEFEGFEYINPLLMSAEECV
Description: aPKCι Assays: aPKC enzyme activity was measured as previously described (Standaert et al., J. Biol. Chem. 279:24929-24934, 2004; Sajan et al., J. Lipid Res. 50:1133-1145, 2009; Sajan et al., Diabetologia 52:1197-1207, 2009; Farese et al., J. Clin. Invest. 117:2289-2301, 2007). […] After incubation, ^32P-labeled substrate was trapped on P-81 filter paper and counted. […]

T1 sequence (P31751 whole entry): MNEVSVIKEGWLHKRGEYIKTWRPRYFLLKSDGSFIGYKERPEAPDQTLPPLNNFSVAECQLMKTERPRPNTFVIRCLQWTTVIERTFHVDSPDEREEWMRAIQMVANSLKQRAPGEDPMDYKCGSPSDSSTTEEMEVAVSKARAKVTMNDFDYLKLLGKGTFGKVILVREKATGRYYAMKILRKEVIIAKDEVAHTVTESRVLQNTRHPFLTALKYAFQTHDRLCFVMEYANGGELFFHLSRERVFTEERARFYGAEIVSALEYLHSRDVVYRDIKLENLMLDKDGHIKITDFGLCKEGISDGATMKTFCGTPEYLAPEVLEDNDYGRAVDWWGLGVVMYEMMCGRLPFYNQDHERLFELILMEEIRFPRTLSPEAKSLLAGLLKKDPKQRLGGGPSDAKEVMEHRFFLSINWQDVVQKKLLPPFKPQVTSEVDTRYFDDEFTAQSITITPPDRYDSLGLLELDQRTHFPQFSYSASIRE

SMILES	insulin-induced increases in Akt activity (Akt2)	inhibition of PIP3-activated recombinant PKC-ι (recombinant PKC-ι; in vitro)	IC50 (recombinant PKC-ι; 10 ng recombinant PKC-ι activated by 10 fM PIP3, in vitro) [nM]
O=C([O-])CC([S][Au])C(=O)[O-] (stereo not shown) [ATM, aurothiomalate, reference compound]	neither ICAPP nor ATM inhibited	did not inhibit	–
NC(=O)c1ncn([C@@H]2C[C@H](COP(=O)(O)O)[C@@H](O)[C@H]2O)c1N [ICAPP, 1H-imidazole-4-carboxamide, 5-amino-1-[2,3-dihydroxy-4-[(phosphonooxy)methyl]cyclopentyl]-[1R-(1α,2β,3β,4α)]]	neither ICAPP nor ATM inhibited	–	10 to 100
